Like-named read-outs stand apart in the source and are kept apart here. Marks after values point to notes of the source that are not given here. Residues, ends and D or L forms follow the SMILES beside them. *: point of attachment. Cbz = O=C(OCc1ccccc1)*

This is an account of results in publication PMC7185411 (Biochimica et Biophysica Acta. Proteins and Proteomics, 2015).

Series [1] has as its target Chymotrypsin. To be noted: read-out: Ki(obs), cited from earlier work.
Series [2] deals with Chymotrypsin. Put plainly: Binding of inhibitors to chymotrypsin. Format: biochemical. The settings on record: for KiIH/KiICHO or KiIH/KiICOCHO: fold increase in binding due to aldehyde or glyoxal group; for KiIH/KiICOOH: pH 7.2, ratio of Ki(obs) of peptide-H to peptide-COOH.
The conditions of series [3]: cited from earlier work; for KH1: KH1 = KH1obs/[H2O], 25 °C.
Series [4] relates to α-Chymotrypsin. The settings on record: equilibrium constant for hemiketal formation; cited from earlier work.
Setting [5] is: hydration of glyoxal keto group.

What is called Ki is a measure of affinity in units of concentration, obtained from inhibition or displacement. In the case of `C[C@H](NC(=O)OCc1ccccc1)C(=O)N[C@@H](C)C(=O)N[C@@H](Cc1ccccc1)C(=O)C=O` [ZAAF-CHO, Z-Ala-Ala-Phe-CHO], the Ki in series [1] (25 °C) is 1.7 ± 0.4 µM. For the same compound, the “KiIH/KiICHO or KiIH/KiICOCHO” value in series [2] worked out at 100. Further, the KH1 in series [3] is 0.25. In addition, the “KH1(obs)” value in series [3] (hydration of aldehyde group) is 13.9 ^e.
Take `CC(NC(=O)OCc1ccccc1)C(=O)NC(C)C(=O)NC(Cc1ccccc1)C(=O)C=O` (stereo not shown) [ZAAF-COCHO]: in series [4], the KHK is listed as 1170. The Ki in series [1] (pH 7.2, 25 °C) was 0.365 µM. The “KiIH/KiICHO or KiIH/KiICOCHO” value in series [2] was determined as 455. Further, the KH1 in series [3] is recorded as 0.0284. The “KH1(obs)” value in series [3] (setting [5]) is reported as 1.58 ^d.
Regarding `C[C@H](NC(=O)OCc1ccccc1)C(=O)N1CCC[C@H]1C(=O)N[C@@H](Cc1ccccc1)C(=O)C=O` [ZAPF-COCHO], the KHK in series [4] is 5270. Further, the Ki in series [1] (pH 7.2, 25 °C) is 0.0335 µM. In addition, the “KiIH/KiICHO or KiIH/KiICOCHO” value in series [2] is on record as 2310; in series [2] (listed as Z-APF-COCHO), 460–2300. Also, the KH1 in series [3] is recorded as 0.023. For the same compound, the “KH1(obs)” value in series [3] (setting [5]) was 1.28 ^c.
For the compound `CC(NC(=O)OCc1ccccc1)C(=O)N1CCCC1C(=O)NC(C=O)Cc1ccccc1` (stereo not drawn) [ZAPF-H, Z-Ala-Pro-Phe-H] (Cbz-Ala-Pro-Phe-aldehyde; configuration not given here), in series [1] (pH 7.2, 25 °C), the Ki is 77.4 ± 6.4 µM.
As to Cbz-Ala-Ala-Phe-OH [ZAAF-COOH], the inhibition constant Ki in series [1] (pH 7.2, 25 °C) is 532 ± 50 µM. Besides, in series [2], the “fold tighter binding on replacing the α-carboxylate group with a hydrogen atom” value is listed as 3–4 fold and the KiIH/KiICOOH is listed as 0.31.
On to Cbz-Ala-Pro-Phe-OH [ZAPF-COOH], for which the Ki in series [1] (pH 7.2, 25 °C) was 241 ± 7 µM. For the same compound, in series [2], the “fold tighter binding on replacing the α-carboxylate group with a hydrogen atom” value is listed as 3–4 fold and the KiIH/KiICOOH was found to be 0.32.
